Laboratory results from paper PMC7895558, “Antiprotozoal Compounds from Urolepis hecatantha (Asteraceae)” (Evidence-based Complementary and Alternative Medicine : eCAM, 2021).
Where “and” joins values, the source holds several entries; their conditions need not be identical. Equal entries are not always repeated. Where two headings read alike, the source gives them in different places.

What was measured:
[1] = system: Trypanosoma cruzi epimastigotes (Tulahuen 2 strain); test: in vitro anti-Trypanosoma cruzi activity (epimastigote growth, absorbance 600 nm); assay type: cell-based; conditions: for IC50: Trypanosoma cruzi, TULAHUEN, 120 h, read-out: IC50 on T. cruzi epimastigotes
Description: (§1) For the anti-Trypanosoma and anti-Leishmania activity assays, we followed the methods described by Aguilera et al., 2019 [15].
For the in vitro anti-Trypanosoma cruzi activity, epimastigotes of the Tulahuen 2 strain (genotype TcVI) grown in an axenic medium (BHI-Tryptose) were used. Cells from a 5–7-day-old culture were inoculated in a fresh culture medium to give an initial concentration of 10^6 cells/mL. The absorbance at 600 nm of the cells in culture was measured every day. On day five, the medium was inoculated with different doses of the compounds (25–0.05 µM) from a stock solution in dimethylsulfoxide (DMSO) (DMSO concentration in the culture medium never exceeded 0.4%). Control parasites were cultivated in medium with 0.4% DMSO v/v. Benznidazole was used as a positive control. At five days, the absorbance of the culture was measured and compared to the control and the IC50 values were calculated for each compound using OriginLab 8.5® sigmoidal regression. Each experiment was done in duplicate, and each concentration was tested in triplicate.

[2] = system: Leishmania infantum promastigotes; test: anti-Leishmania activity (promastigotes, resazurin); assay type: cell-based; conditions: 48 h, read-out: IC50 on L. infantum promastigotes
Description: as §1
Leishmania infantum (MHOM/BR/2002/LPC-RPV) was obtained from Fiocruz (Collection of Oswaldo Cruz Foundation, Rio de Janeiro, Brazil). Promastigotes were cultured as described with some modifications at 28°C in an axenic medium (BHI-Tryptose supplemented with: FBS 10%, hemine 2 × 10^−5 mg/mL, glucose 3.0 × 10^−4 g/mL, streptomycin 2.0 × 10^−4 g/mL, ampicillin 1.3 × 10^−4 g/mL) as a low-cost alternative for Leishmania spp. culture. Assays were performed in 96-well plastic plates using 2 × 10^6 promastigotes per well. Compounds were dissolved in DMSO. Different serial dilutions (25–0.05 µM) of the compounds with a final volume up to 200 µL were added. After 48 h at 28°C, 20 µL of a 2 mM resazurin solution was added, and the oxidation-reduction was quantified at 570 and 600 nm. The resazurin solution was prepared at 2.5 mM in phosphate-buffered solution (PBS), pH 7.4, and filtered through 0.22 µm before use. Resazurin sodium salt was obtained from Sigma-Aldrich (St. Louis, MO, USA) and stored at 4°C protected from light. Glucantime was used as a positive control. The efficacy of each compound was estimated by calculating the IC50 values using OriginLab 8.5® sigmoidal regression. Each antiproliferative experiment was done in duplicate, and each concentration was tested in triplicate.

cytotoxicity assay (MTT) = assay type: cell-based; conditions: mouse
Description: The cytotoxicity of the dewaxed dichloromethane extract of U. hecatantha and the isolated compounds was evaluated according to the method described by Aguilera et al., 2019 [15]. The J774.1 murine macrophages (ATCC, USA) were grown in a DMEM culture medium containing 4 mM L-glutamine and supplemented with 10% FCS. Cells were seeded in a 96-well plate (5.00 × 10^4 cells in 200 µL culture medium) and incubated at 37°C in a 5% CO2 atmosphere for 48 h, to allow cell adhesion before drug testing. Afterwards, cells were exposed for 48 h to the compounds (25–400 µM) or the vehicle for control (medium with 0.4% DMSO v/v), and additional control (cells in medium) were used in each test. Cell viability was then assessed by measuring the mitochondria-dependent reduction of MTT [3-(4,5-dimethylthiazol-2-yl)-2,5-diphenyltetrazolium bromide] to formazan. For this purpose, MTT in sterile PBS (containing 0.2% glucose), pH 7.4, was added to the macrophages to achieve a final concentration of 0.1 mg/mL, and the cells were incubated at 37°C for 3 h. After removing the medium, formazan crystals were dissolved in 180 µL of DMSO and 20 µL of MTT buffer (0.1 M glycine, 0.1 M NaCl, 0.5 mM EDTA, pH 10.5), and the absorbance at 560 nm was measured. The CC50 was defined as the drug concentration at which 50% of the cells were viable, relative to the control (no drug added), and was determined using OriginLab 8.5® sigmoidal regression (% of viable cells compared to the logarithm of the compound concentration). Tests were performed in triplicate.

[3] = system: Trypanosoma brucei rhodesiense trypomastigotes; conditions: cited from earlier work
[4] = system: L6-cell line from rat-skeletal myoblasts; set-up: method as in PMID 29244495; conditions: read-out: CC50 on L6 cells; cited from earlier work
[5] = Leishmania infantum, promastigotes

IC50 ([1]; epimastigotes, 5 days) | Compound | IC50 [2, 5] | CC50 at 48 h (cytotoxicity assay (MTT); J774.1 murine macrophages) [µM] | also measured
7 ± 2 µM | O=C(Cn1ccnc1[N+](=O)[O-])NCc1ccccc1 [benznidazole, reference compound] | – | – | –
– | C=C(C)c1cc2cc(C(C)=O)c(O)cc2o1 [compound 1, euparin] | – | – | IC50 ([2]; Leishmania infantum): 18 µM and 3.9 µg/mL; CC50 at 48 h (cytotoxicity assay (MTT); murine macrophages): > 25 µM; IC50 [1]: > 25 µM
> 25 µM | COc1cc(-c2oc3cc(O)c(OC)c(O)c3c(=O)c2OC)ccc1O [compound 2, jaceidin] | > 25 µM | > 25 | –
18 µM and 7.6 µg/mL | C=C1C(=O)O[C@@H]2/C=C(\C)[C@@H](O)C/C=C(\C)C[C@@H](OC(=O)/C(=C/CO)COC(C)=O)[C@@H]12 [compound 3, santhemoidin C] | 19 µM and 8 µg/mL | > 15 | –
– | Glucantime [reference compound] | – | – | IC50 ([2]; promastigotes): 26 ± 9 µM

Compound | IC50 ([1]; epimastigotes, 5 days) | IC50 [2, 5] | CC50 at 48 h (cytotoxicity assay (MTT); J774.1 murine macrophages) [µM] | also measured
C=C1C(=O)O[C@@H]2/C=C(/C)[C@@H](OC(C)=O)C/C=C(\C)C[C@@H](OC(=O)/C(=C/CO)CO)[C@@H]12 [compound 4, eucannabinolide] | 10 µM and 4.2 µg/mL | > 25 µM | – | CC50 (cytotoxicity assay (MTT); murine macrophages, 48 h): 15 µM; IC50 ([3]; loaded onto polylactic acid nanoparticles, target not restated in the sentence, read-out: free drug equivalent IC50): 3.32 µM; IC50 ([3]; read-out: IC50 against Trypanosoma brucei rhodesiense trypomastigotes): 1.1 ± 0.1 µM; selectivity index (SI) on T. cruzi ([1]; macrophage CC50 versus T. cruzi epimastigote IC50): 1.5; CC50 [4]: 7.8 ± 0.8 µM
